We go through one molecule from US12435091B2, “RNA-binding protein multimerization inhibitors and methods of use thereof” (THE UAB RESEARCH FOUNDATION, priority 2020, dated 2025).

One data set can be described thus: Log D at pH 7.4. The data set is classed as physicochemical.
The next data set deals with LN229 glioma cell line. The experiment in a line: cell cycle analysis (propidium iodide, flow cytometry). The data set is classed as cell-based. The settings on record: LN229, 10 uM for 18 hours. The procedure: (§1) Cell cycle distribution was evaluated using a standard staining procedure with propidium iodide (PI) (Sigma-Aldrich; St. Louis, MO) followed by flow cytometry. For cell cycle analysis, cells were plated at low density and synchronized by starvation in serum-free media for 48 hours, then treated with drug or vehicle (control) for 18 hours in normal media with 10% serum. Next, cells were collected, washed, and resuspended in ice-cold phosphate buffered saline (PBS). Cells were fixed under gentle vortexing by dropwise addition of a 10×volume of ice-cold 80% ethanol (−20° C.) on ice. Subsequently, samples were stored at −20° C. for at least 18 hours until data acquisition. Before cell cycle analysis, cells were washed in PBS and treated with RNase A (200 μg/mL, in PBS) and PI (20 μg/mL) for 45 minutes at 23° C. Acquisition of at least 10000 events per sample was performed in UAB Flow Cytometry Facility. Data were analyzed by FlowJo v10 software (Becton, Dickinson and Company; Franklin Lakes, NJ).
(§2) HuR is one of the key regulators of cell cycle progression in cancer cells, particularly high-grade glioma; therefore, the arrest of cell cycle progression by the newly identified compounds supports HuR-targeted inhibition. FIG. 5B illustrates representative histograms of cell cycle progression in the established U251, LN229, and the PDGx XD456 glioma cell lines in the control (treatment with vehicles) and after treatment with SRI-42127. The bar graph represents the average numbers of cells in each phase of the cell cycle after treatment with the SRI-42127 normalized to the corresponding control values (vehicle treatment). There was a significant accumulation of cells in the G1 phase and a reduction of cells in the S phase after treatment with SRI-42127, 10 uM for 18 hours. […] The average reductions of cells in the S phase were 65±4% (n=3), 60±3% (n=3), and 70±3% (n=3) in U251, LN229, and XD456 cell lines, respectively, after treatment with SRI-42127 compared to the control.

Data set [1] deals with PDGx XD456 glioma cell line. The data set is described as above. The data set is classed as cell-based. Particulars: XD456, 10 uM for 18 hours. How it is done: as §1, §2
In the next data set the test system is U251 glioma cell line. The data set is described as above. The class given is cell-based. The settings on record: U251, 10 uM for 18 hours. The procedure:
as §1, §2

A further data set has as its system primary human astrocytes. Briefly: cleaved caspase-3 immunostaining in primary human astrocytes. The data set is classed as cell-based. Particulars: up to 15 uM. How it is done: At the end of experiments, neurons and astrocytes were rinsed briefly with PBS and fixed by using 4% paraformaldehyde, pH 7.4 for 13 minutes at room temperature. Triton X-100 (0.3%) in PBST buffer (i.e., PBS with 0.1% Tween 20) was used for cell permeabilization for 30 minutes at room temperature. Cells were rinsed with PBST buffer 3 times for 10 minutes after fixation. Blocking buffer (3% BSA, 22.52 mg/ml glycine in PBST) was used to block unspecific antibody binding for 30 minutes at room temperature. Primary cleaved caspase 3 antibody (Cell Signaling Technology; Danvers, MA) at 1:200 dilution in PBST buffer with 1% BSA was utilized overnight at 4° C. for cleaved caspase 3 staining. The next day, cells were rinsed four times for 10 minutes with PBST buffer and then were incubated with secondary antibody (Alexa Fluor 594, goat anti-rabbit IgG, Invitrogen (Carlsbad, CA), 1:2000/5000 dilution) in PBST buffer with 1% BSA for 1 hour at room temperature in the dark. Next, cells were rinsed with PBST buffer 4 times for 10 minutes in the dark. Cell nucleus were stained with DAPI (4′,6-diamidino-2-phenylindole). Cell images were obtained with EVOS Fl (Life Technologies; Eugene, OR) imaging system.
The cellular metabolism declined by about 44% after treatment with SRI-42127, 25 uM for 48 hours as shown by FIG. 5E. […]

Data set [2] has as its system Bcl2 and Mcl1 mRNAs in LN229 cell line. Briefly: Taqman quantification of Bcl2/18S and Mcl1/18S mRNA. The class given is cell-based. Particulars: LN229, 10 uM for 24 hours. The procedure: (§3) The HuR-mRNA co-immunoprecipitation (IP) was performed by utilizing RiboCluster Profiler RIP-assay Kit (MBL International). The quantifications of Bcl2, and 18S transcripts were performed using Taqman technique with the following gene-specific probes: Hs00153350_m1, Hs03003631_g1, and Hs00766187_m1 (ThermoFisher Scientific) for Bcl2, 18S, and Mcl1, respectively.
(§4) mRNA isolation and purification from adherent cells were performed using RNeasy Mini Kit and QIAshredder columns (Qiagen, Valencia, CA).
(§5) HuR protein plays a significant role in the stabilization of the mRNAs of the anti-apoptotic Bcl2-family, which contributes to the protection of genetically unstable glioma cells from apoptosis. Therefore, the Bcl2 family was evaluated in the established and PDGx cell lines after cell treatment with SRI-41664 or SRI-42127 compounds. […] The protein levels of Bcl2 and Mcl1 were evaluated in the established U251 and PDGx XD456 glioma cell lines in the control (vehicle treatment) and after treatment with SRI-41664 or SRI-42127 compounds for 48 hours.

Data set [3] deals with Bcl2 and Mcl1 mRNAs in PDGx XD456 cell line. Described as above. The data set is classed as cell-based. Particulars: XD456, 10 uM for 24 hours. How it is done:
as §3, §4, §5

Data set [4] concerns Bcl2 and Mcl1 mRNAs in U251 cell line. The data set is described as above. The class given is cell-based. Particulars: U251, 10 uM for 24 hours. The procedure:
as §3, §4, §5

The subject of data set [5] is Bcl2 and Mcl1 mRNAs in U87 cell line. Described as above. The data set is classed as cell-based. Particulars: U87, 10 uM for 24 hours. The procedure:
as §3, §4, §5

For a further data set, the system named is U251 cell line. The experiment in a line: attached cell colony formation assay. The settings on record: 3 uM. The data set is classed as cell-based. The procedure: (§6) The soft agar colony formation assay was performed by using 0.9% and 0.45% agarose for the bottom and the top layers, respectively; cells were incorporated in the top layer. Seaplaque low-melting temperature agarose was purchased from Lonza (Rockland, ME). Five hundred cells per well were utilized in both, the soft agar and the attached colony formation assays, which were performed in 6 well plates; cells were treated with vehicle as the control or with the desired drugs, which were administered twice per week for three weeks. The Crystal violet solution (0.1%) was utilized for colony staining in both assays. The colonies were counted after three weeks of treatment; the plate images were obtained by using Amersham Imager-600 reader (Piscataway, NJ).
(§7) Graphs in FIG. 8D illustrate the average numbers of colonies formed by established U251 and PDGx XD456 cell lines in the attached cell colony formation assay and in the soft agar colony formation assay, which represents anchorage independent cell growth.

Another data set relates to XD456 cell line. The experiment in a line: attached cell colony formation assay. The settings on record: 3 uM. The data set is classed as cell-based. How it is done: as §6, §7

Experimental for Log D at pH 7.4: Selected compounds were assessed for their aqueous solubility, Log D and mouse and human liver microsomal stability.

Turning to `CN(c1ccc2ncc(-c3ccc4cn[nH]c4c3)n2n1)C1CCOCC1` [Compound 19], the logD in “Log D at pH 7.4” came to 3.1. In addition, the “increase of cells in the G1 phase compared to the control” value with LN229 glioma cell line turned out to be 56±28%; in data set [1] it was 210±40%; in the data set with U251 glioma cell line, 97±33%. Further, the figures for the “reduction of cells in the S phase compared to the control” value (with LN229 glioma cell line; in [1]; in the data set on U251 glioma cell line) were 60±3%, 70±3% and 65±4%, respectively. In the data set on primary human astrocytes, the “cleaved caspase-3 activation” value is “significant alterations in cleaved caspase-3 activation were not observed”. The “decrease of Bcl2/18S mRNA ratio” value in [2] stood at 95±2%; in data set [3], 96±2%; in data set [4], 96±2%; in [5], 95±2%. Further, the “decrease of Mcl1/18S mRNA ratio” value in data set [2] is 87±8%; in data set [3] it was 90±9%; in data set [4], 95±3%; in [5] it was 86±7%. Also, the number of colonies is reported as 49+28 in the data set with U251 cell line and 34+12 in the data set on XD456 cell line.
